Experimental data reported in US8965708B2, “Method for the treatment of acquired lymphedema” (The Board of Trustees of the Leland Stanford Junior …, priority 2006, dated 2015).
“Also recorded” adds a separate entry of the source.

Legend:
[1] = Permeation through the stratum corneum of human cadaver skin; format: in vitro ADME; details: cumulative permeation over time, FIG. 33
Excerpt: FIG. 33. Ketoprofen chemistry. (A) Chemical formula of ketoprofen. (B) Ester modification to improve bioavailability. […] Closed triangles: Methyl ester. Open circles: ethyl ester. Open squares: isopropyl ester. x axis=time in hours.

Log Kow = format: physicochemical
[2] = test system: cytokine levels in tail skin; assay: Tissue cytokine assays (Luminex) in tail skin homogenates; format: in vivo, mouse
Description: Cytokine levels in tail skin were measured in normal controls and mice with untreated, NSAID-treated, and sTNF-R1-treated lymphedema (n=3 per group) sacrificed on postoperative day 7. The Luminex LabMap200 System was used to measure the levels of 42 cytokines from the supernatant of tissue homogenates. Multiplex cytokine kits were purchased from Panomics (Fremont, Calif.), and the assay was performed according to the manufacturer's recommendation with the following modifications: 25-50 μl of samples, standards, and controls were added in duplicate to 96-well filter plates pre-configured with a panel of anti-cytokine antibodies covalently linked to unique polystyrene beads. The plate was incubated overnight at 4° C. in the dark with shaking at 500 rpm, vacuum aspirated, and washed three times with 140 μl of wash buffer to remove unbound antigen. Biotinylated detection antibody solution (25 μl) was added to each well and incubated for 1 hour with shaking at 500 rpm at room temperature. The plate was incubated with 50 μl of streptavidin-phycoerythrin for 35 minutes and then with 120 μl of reading buffer for 3 minutes at room temperature with shaking. After laser excitation, digital images of the bead array were captured with a CCD camera and analyzed on a computer workstation with BeadView software.

[3] = test system: tail lymphedema in SKH-1 mice; assay: Histology and histomorphometric quantitation of epidermal thickness (Example 4); format: in vivo, mouse; details: for histological changes in mice with lymphedema: hematoxylin/eosin
Description: Immediately after sacrifice, 0.5-g sections of tail were harvested for histological analysis and RNA extraction. Sections extended from a point 4 mm proximal to the surgical incision to 8 mm beyond it. The specimens were fixed overnight in 4% paraformaldehyde, embedded in paraffin, cut into 5-μm sections, stained with hematoxylin and eosin (Richard-Allan Scientific, Kalamazoo, Mich.), and examined by light microscopy.
Epidermal thickness was measured serially using digital images of histology slides stained with hematoxylin and eosin. Processing and analysis were performed using Adobe Photoshop CS4 and ImageJ (http://rsbweb.nih.gov/ij) as previously described with modifications (Sanders J E, et al. Comput Methods Programs Biomed. 1999; 59:167-180). Quantitative measurements were imported to Prism 5 software (GraphPad Software Inc., La Jolla, Calif.) for statistical analysis and graphing.

[4] = test system: TNF-α, MCP-1, VEGF-C, VEGF-D, VEGFR-3, Prox1, LYVE-1 expression; assay: Targeted gene expression analysis by quantitative real-time RT-PCR in tail skin; format: in vivo, mouse
Description: Primers and probes were from Assays-on-Demand (Applied Biosystems, Foster City, Calif.). cDNA was synthesized from 5 μg of total RNA with Taqman reverse-transcription reagents (Applied Biosystems) and amplified in triplicate at 50° C. for 2 minutes and 95° C. for 10 minutes, followed by 40 cycles of 95° C. for 15 seconds and 60° C. for 1 minute. Reactions without template and/or enzyme were used as negative controls. 18S ribosomal RNA served as an internal control. A standard curve derived from embryonic mouse RNA was plotted for each target gene by linear regression using SPSS software (v. 11.0, Applied Biosystems). RNA quantity was expressed relative to the corresponding 18S control. Fold differences were calculated by dividing the experimental results by the pooled normal results and were plotted on a log 10 scale.

[5] = test system: tail lymphedema in SKH-1 mice; assay: Tail volume quantitation, NSAID / sTNF-R1 treatment (Example 4); format: in vivo, mouse
Description: Tail lymphedema was induced in female hairless, immunocompetent SKH-1 mice (Charles River Laboratories, Boston, Mass.) as described. The mice were anesthetized with a solution of ketamine, xylazine, and saline (0.07 ml i.p.). The skin of the tail was circumferentially incised 16 mm distal to its base. The major lymphatic trunks were identified by subcutaneous injection of methylene blue distal to the incision and ablated by limited cautery. The mice were carefully monitored for any visceral signs of distress. Sham surgery controls were treated identically, but without lymphatic cautery. […] All mice were sacrificed in accordance with American Veterinary Medical Association guidelines for rodent euthanasia after day 11 days of observation. After sacrifice, 500 mg sections of the tail were harvested for paraffin embedding and RNA extraction. For all in vivo experiments, housing, husbandry and experimentation were in strict accordance with the Animal Welfare Act and the Guide for the Care and Use of Laboratory Animals.
Sham surgery and normal controls were treated identically with the NSAID (n=8 per group), sTNF-R1 (n=11 per group), or PBS (n=11 normal controls, n=8 sham surgery controls).
Tail volume was measured serially in each mouse, using a digital photographic application of the truncated cone approximation as described.

[6] = test system: post-surgical lymphedema in the tails of SKH-1 mice; assay: Tail volume quantitation, VEGF-C in experimental lymphedema (Example 3); format: in vivo, mouse; details: single subcutaneous dose of 200 ng on post-surgical day 3
Description: Post-surgical lymphedema was experimentally created in the tails of female hairless, immunocompetent SKH-1 mice (Charles River Laboratories, Boston Mass.) as described in example 1, above. Therapeutic VEGF-C lymphangiogenesis in experimental lymphedema. On post-surgical day 3, the treated animal subjects received parenteral recombinant human VEGF-C (R&D Systems Inc., Minneapolis, Minn.). Each animal received a single subcutaneous dose of 200 ng of the growth factor (2 mg/mL), equally divided between the proximal and distal wound edges. Untreated lymphedema subjects received subcutaneous saline analogously administered.
Tail volume was serially quantitated in 19 mice divided into four treatment categories: normal, untreated lymphedema, VEGF-C-treated lymphedema, and surgical sham controls. For animals who had surgical intervention, this was defined to have occurred on day 0. All of the mice had quantitation of baseline tail volume; thereafter, volume was quantitated at defined time points: days 2, 4, 7, 9, 11, 14, 16, 18, 21, 23 28, 35, 42, 50, 57, 63, 65, 67 and 71. […] A single digital image of each tail was recorded with an OLYMPUS D520 Zoom digital camera at 1600×1200SHQ resolution. […] The diameter of the tail was digitally, serially quantitated at distances of 8 mm beginning at the proximal end of the tail. […]

[7] = test system: LYVE-1-positive lymphatic vessels; assay: LYVE-1 immunohistochemical staining, lymphatic vessel number and area; format: in vivo, mouse
Description: 5 μm-thick paraffin sections were de-paraffinized in xylene, re-hydrated in a graded series of ethanol, pretreated with target retrieval solution (Dako, Carpinteria, Calif.) in a pressure cooker, and incubated in a peroxidase block for 10 minutes. Sections were then incubated with rabbit polyclonal anti-LYVE-1 antibody (1:200, Upstate Cell Signaling Solutions, Lake Placid, N.Y.) for 1 hour at room temperature, followed by horseradish peroxidase (HRP)-conjugated secondary antibody for 30 minutes at room temperature and detection with DAB for 4 minutes (Envision System Kit, Dako). Tissue sections were counterstained with Gill 1 Hematoxylin (Richard-Allan Scientific, Kalamazoo, Mich.). for 15 seconds, then dehydrated in graded ethanol and coverslipped with CoverSafe (American Master*Tech, Lodi, Calif.).
5 μm-thick paraffin sections were prepared and stained for LYVE-1 as described in example 1, above.
Mean lymphatic vessel number was determined by averaging the number of total lymphatic vessels in all of the fields of each slide at 10× magnification. The observer was blinded to the treatment status of the animal in each case. Lymphedema was characterized by an increase in LYVE-1-positive vessel number/field that was not observed in normals or after VEGF-C-treatment: lymphedema, 7.3±4.0 (P=0.02 compared to normal); VEGF-C, 1.3±0.9 (N.S.); and normal, 1.0±0.8.
Lymphatic vessel area was quantitated according to the formula π·r1·r2. […] Both vessel number and size returned substantially to normal following exogenous administration of recombinant VEGF-C.

[8] = test system: post-surgical lymphedema in the tails of SKH-1 mice; assay: Histology of tail sections (H&E), VEGF-C study; format: in vivo, mouse; details: day 11
Excerpt: For histological evaluation, 11 mice were sacrificed on Day 11 of observation. Immediately following sacrifice, 0.5 gm sections of the tail were harvested. Sections extended from a point 4 mm proximal to the surgical incision to 8 mm beyond it. The specimens were fixed overnight in 4% paraformaldehyde. After paraffin embedding, 5 μm sections were stained with hematoxylin and eosin (H&E, Richard-Allan Scientific). After deparaffinization in xylene, sections were rehydrated though a series of graded alcohol steps starting with 100% EtOH and ending in 50% EtOH. Slides remained in toluidine blue for 2 minutes and were then dehydrated through graded alcohol washes and covered with Cytoseal (Richard Allan Scientific).

[9] = test system: clearance of luc+ splenocytes from lymphedematous tails of FVB/N mice; assay: Functional in vivo bioluminescence imaging of immune traffic, VEGF-C study; parameters: species or system mouse
Description: Experimental lymphedema was created surgically in the tails of 20 FVB/N female wild type mice (Jackson Laboratories, […]), using the technique described above, and functionally compared with normal mice (n=8). The lymphedematous mice were treated with human recombinant VEGF-C or with saline, as described above, on post-surgical day 3. For in vivo bioluminescence imaging, spleens from transgenic luc+ heterozygous animals, expressing firefly luciferase under the control of a chicken beta-actin promoter, as previously described (Beilhack et al., 2005; Cao et al., 2004), were placed into single cell suspension. These single cell suspensions consisted of different hematopoietic lineages: ˜40% were CD19+ B cells, ˜20% CD4+ T cells, ˜10-15% were CD8+ T cells, 3% NK1.1+ NK cells and the rest were GR.1+ granulocytes, Mac-1+ macrophages, CD11c+ dendritic cells and rarer cell populations. 4×10^6 splenocytes (>97% CD45+) in PBS were injected in a volume of […] into the tail interstitium/emission]×100%. 1 cm caudal to the site of surgery, in lymphedema mice and normal controls, respectively. […] The efficiency of cellular lymphatic drainage was determined by direct imaging of light emission, with quantitation of the relative change in light emission from that measured at 20 hours after cell injection, as follows: relative photon emission=[emissionday 7/emission20 hours]×100%.

COC(=O)C(C)c1cccc(C(=O)c2ccccc2)c1 (centres unmarked) [ketoprofen methyl ester]
ability to permeate the stratum corneum of human cadaver skin [1]: most penetration | Log Kow (Log Kow): 3.65

CC(C)OC(=O)C(C)c1cccc(C(=O)c2ccccc2)c1 (centres unmarked) [ketoprofen isopropyl ester]
Log Kow (Log Kow): 4.56

pegsunercept [sTNF-R1]
MCP-1 tissue levels (protein) ([2]; postoperative day 7): further increased | MCP-3 tissue levels (protein) ([2]; postoperative day 7): significantly reduced | eotaxin tissue levels ([2]; postoperative day 7): decreased | MCP-3 tissue levels (protein) ([2]; postoperative day 7, listed as sTNFR-1): inhibited | epidermal thickness (ET) compared to untreated LY mice ([3]; FIG. 14B): significantly increased | epidermal thickness increased, compared to untreated mice with lymphedema ([3]; day 11): 16.0±2.5% | histological changes in mice with lymphedema ([3]; day 11, listed as sTNFR1): no discernible amelioration | histological changes in mice with lymphedema ([3]; day 11, listed as sTNFR-1): exacerbates the pathology | expression of other targeted genes (other than TNF-α) ([4]; day 11): did not affect other genes | TNF-α expression (mRNA) ([4]; day 11, lymphedema mice): reduced TNF-α expression to control levels; also recorded: downregulated | VEGF-C expression (mRNA) ([4]; lymphedema mice): decreased | VEGFR-3 expression ([4]; lymphedema mice): decreased | tail volume, % of baseline ([5]; day 7, lymphedema mice, s.c. every other day from day 3): 183.7±26.8% | edematous response (tail volume) of lymphedema mice ([5]; lymphedema mice, systemic s.c. treatment): significantly more edematous | effect on tail volume in normal and sham surgery mice ([5]; normal and sham surgery mice): no discernable effect

CCOC(=O)C(C)c1cccc(C(=O)c2ccccc2)c1 (centres unmarked) [ketoprofen ethyl ester]
Log Kow (Log Kow): 4.14

B1: VEGF-C: parenteral recombinant human VEGF-C (R&D Systems Inc.), growth factor (protein, UniProt P49767 112-227, looked up)
Vascular endothelial growth …: AHYNTEILKSIDNEWRKTQCMPREVCIDVGKEFGVATNTFFKPPCVSVYRCGGCCNSEGLQCMNTSTSYLSKTLFEITVPLSQGPKPVTISFANHTSCRCMSKLDVYRQVHSIIRR
mean tail volume compared with untreated lymphedema [6]: significant decrease in volume; also recorded: diminution in the mean tail volume; also recorded: volume reduction, compared with untreated lymphedema, was evident by day 7 | LYVE-1-positive vessel number/field ([7]; 10x magnification, day 11): 1.3±0.9 | average lymphatic area/field (LYVE-1-positive vessel area) ([7]; formula π·r1·r2, n=3): 2992±1311 μm^2 | size and number of LYVE-1-positive skin lymphatics ([7]; vs untreated lymphedema): reduction in the observed size and number of these skin lymphatics; also recorded: reduction in the number and size of LYVE-1-positive vessels | histological pattern of tail tissue [8]: substantial reversion to the normal pattern | clearance of bioluminescent immunocytes (immune traffic) ([9]; day 7 post-injection): ameliorated | relative photon density, % of the observed value 20 hours post-injection ([9]; day 7 post-injection (post-operative day 14), n=12): 24±9%
